Experimental data taken from a melting point compilation (Tetko et al.).

| Compound | melting point |
| --- | --- |
| O=C(O)CCc1nc(-c2ncccn2)no1 | 202 to 204 °C |
| Nc1ccc(-n2ccnc2)cc1 | 143 to 147 °C |
| COc1cc(CO)c([N+](=O)[O-])cc1OCC(F)F | 107 to 109 °C |
| Nn1c(S)nnc1-c1ccccc1 | 193 to 195 °C |
| Cc1c(S(=O)(=O)Cl)sc2cc(F)ccc12 | 138 to 140 °C |
| BrCc1ccc2c(c1)COC2 | 49 to 51 °C |
| O=C(O)COc1ccc(Oc2ccccc2)cc1 | 127 to 129 °C |
| N#CCCn1cc(C(=O)O)c(-c2cccc3ccccc23)n1 | 179 to 181 °C |
| COc1cc(C#N)ccc1OCCCC(=O)O | 146 to 148 °C |
| CC(C)N1C(=O)CNC1=O | 83 to 85 °C |
| O=C(O)CNS(=O)(=O)c1cccc2c1N=S=N2 | 270 to 272 °C |
| CS(=O)(=O)c1ccc(C(=O)c2ccccc2)cc1 | 131 to 133 °C |
| O=[N+]([O-])c1c(CCl)nc2ccccn12 | 152 to 154 °C |
| Cc1ccc(S(=O)(=O)N2CCOCC2)cc1N | 127 to 135 °C |
| O=C(CCl)c1ccc(C2CCCCC2)cc1 | 182 to 187 °C |
| CCn1ncc2c(C(=O)O)cc(-c3ccccc3)nc21 | 236 to 238 °C |
| COc1ccc(C(N)c2cccc(S(C)(=O)=O)c2)cc1 (stereo unspecified) | 80 to 82 °C |
| O=S(=O)(Cl)c1cccc(-n2cnnn2)c1 | 125 to 127 °C |
| CC(=O)NC(C)(C)C(=O)O | 190 to 192 °C |
| CCOC(=O)c1cnc2nccn2c1 | 168 to 170 °C |
| O=C(O)CCC(Cc1ccc(Cl)cc1)C(=O)O (stereo unspecified) | 137 to 139 °C |
| N#CCS(=O)(=O)N1CCCCC1 | 137 to 139 °C |
| Nc1nc2c(F)c(Cl)ccc2s1 | 80 to 82 °C |
| O=C(O)c1cc2sc3ccccc3c2s1 | 249 to 251 °C |

| Compound | melting point |
| --- | --- |
| CC(O)C(NC(=O)C(C)(C)C)C(=O)O (stereo unspecified) | 156 to 158 °C |
| CCc1ccc(OCc2nnc(S)n2Cc2ccccc2)cc1 | 137 to 139 °C |
| O=Cc1ccc(OC(F)(F)C(=O)O)cc1 | 146 to 148 °C |
| CCC(C)C(=O)N1CCCC(C(=O)O)C1 (stereo unspecified) | 118 to 120 °C |
| O=C(O)C1CCCc2[nH]ncc21 (stereo unspecified) | 176 to 178 °C |
| Cn1cc(/C=C/[N+](=O)[O-])cn1 | 127 to 129 °C |
| O=C1NC(=O)c2cc(F)ccc21 | 183 to 185 °C |
| CC(C)C(=O)Nc1ccc(Cl)c(C(=O)O)c1 | 229 to 231 °C |
| COC(=O)c1cc(CBr)on1 | 59 to 61 °C |
| CNS(=O)(=O)c1ccc(Sc2ccccc2C(=O)O)cc1 | 199 to 201 °C |
| CCOc1ccc2ccccc2c1CO | 49 to 51 °C |
| Cc1ccc(-c2ccsc2C(=O)O)cc1 | 134 to 136 °C |
| O=S(=O)(Cl)c1c(Cl)ccc2c(Cl)ccnc12 | 155 to 157 °C |
| CCN(C(C)=O)C(C(=O)O)c1ccc(F)c(F)c1 (stereo unspecified) | 205 to 207 °C |
| CCOc1c(OC)cc(C=O)cc1OC | 48 to 50 °C |
| Cc1noc2ncc(N)cc12 | 179 to 181 °C |
| CC(C(=O)O)c1ccc2c(c1)OCCO2 (stereo unspecified) | 77 to 79 °C |
| CC(C)Cn1[nH]ccc1=NC(=O)OCC(F)(F)F | 63 to 65 °C |
| CCOC(=O)COc1ccc(C#N)cc1 | 54 to 56 °C |
| O=C1NC(=O)C2(CCSC2)N1 (stereo unspecified) | 243 to 245 °C |
| Cn1ccnc1Sc1ccc(C=O)cc1[N+](=O)[O-] | 173 to 175 °C |
| Cc1cc(N)c(C)cn1 | 145 to 147 °C |
| O=C(CCl)c1ccc(O)cc1O | 108 to 110 °C |
| Nc1ccnc(C(=O)O)c1 | 198 to 200 °C |

| Compound | melting point |
| --- | --- |
| NCc1cccc(NC(=O)c2ccncc2)c1 | 128 to 130 °C |
| O=c1ccc2cc(S(=O)(=O)Cl)ccc2[nH]1 | 278 to 280 °C |
| Cn1cc(N2CCNCC2)cn1 | 68 to 70 °C |
| Cc1cc2nc(-c3ccccc3)cc(C(=O)O)c2cc1C | 251 to 253 °C |
| CS(=O)(=O)c1ccc(OCCCBr)cc1 | 93 to 95 °C |
| Cn1cc(C(N)C(=O)O)cn1 (stereo unspecified) | 245 to 247 °C |
| Nc1nc(-c2ccc3c(c2)OCCO3)cs1 | 180 to 182 °C |
| Cc1nc(-c2ccccc2Cl)sc1C(=O)O | 217 to 219 °C |
| O=Cc1cc(Br)ccc1OCc1ccccn1 | 138 to 140 °C |
| Cc1ccc(-n2c(C)ccc2C)cc1N | 83 to 85 °C |
| CCOC(=O)c1ccn(C)c(=O)c1 | 91 to 93 °C |
| Cc1nc2c(c(C)nn2C)c(C)c1CCC(=O)O | 211 to 213 °C |
| COC(=O)c1cc(N)cc(F)c1F | 89 to 91 °C |
| O=C(CSc1cccs1)Nc1ccc(C(=O)O)cc1 | 233 to 235 °C |
| Cc1cccc(CNCc2cccc(C)n2)n1 | 44 to 46 °C |
| CC(C)Oc1ccc(CCCO)cc1 | 31 to 33 °C |
| O=C1CCCC(N2C(=O)c3ccccc3C2=O)C1 (stereo unspecified) | 147 to 149 °C |
| CCCCCCCC(=O)NCCCC(=O)O | 69 to 71 °C |
| N#C/C(=C/c1c[nH]nc1-c1cccc(Br)c1)C(=O)O | 258 to 260 °C |
| CCOc1cccc(CC(=O)O)c1 | 89 to 91 °C |
| COc1cccc(COCC(N)=NO)c1 | 59 to 61 °C |
| CC(=O)c1ccc(-c2ccccc2)s1 | 115 to 117 °C |
| Cc1cc2c[nH]nc2c(C(=O)O)c1N | 174 to 176 °C |
| NNc1ccc(S(=O)(=O)N2CCCCC2)cn1 | 186 to 188 °C |

| Compound | melting point |
| --- | --- |
| CC1CCN(S(=O)(=O)c2ccc(C(=O)O)s2)CC1 | 207 to 209 °C |
| CNC(=O)c1cccc(CCC(=O)O)c1 | 119 to 121 °C |
| O=C(O)c1cc(F)ccc1N1CCOCC1 | 158 to 160 °C |
| CC(NC(=O)OCc1ccccc1)C(=O)N1CCNC(=O)C1 (stereo unspecified) | 154 to 156 °C |
| O=C(O)C1(c2ccc(Br)cc2)CCCCC1 | 179 to 181 °C |
| CC(Nc1ccc(C(=O)O)cc1[N+](=O)[O-])c1ccccn1 (stereo unspecified) | 204 to 206 °C |
| O=C(O)C1CC1c1cccc2ccccc12 (stereo unspecified) | 116 to 118 °C |
| N#CCc1nc2cc(F)ccc2s1 | 133 to 135 °C |
| Cn1cc(-c2nc(C(=O)O)cs2)cn1 | 262 to 264 °C |
| COC(=O)c1cc(S(=O)(=O)Cl)cc(F)c1F | 56 to 58 °C |
| OC(CN1CCCC1)C(F)(F)F (stereo unspecified) | 78 to 80 °C |
| O=C(O)c1cccc2c3c([nH]c12)CCCCC3 | 225 to 227 °C |
| NC1(C(F)(F)F)CCC(O)CC1 (stereo unspecified) | 98 to 100 °C |
| Cc1nn(-c2ccc(F)cc2)c(Cl)c1CO | 134 to 136 °C |
| COc1ccc2c(c1)OCC(C#N)=C2 | 93 to 95 °C |
| Cc1cc(S(=O)(=O)Nc2sc3c(c2C(N)=O)CCC(C)C3)ccc1Br (stereo unspecified) | 218 to 220 °C |
| Nc1ccc(F)c(S(=O)(=O)N2CCOCC2)c1 | 128 to 130 °C |
| O=C(Nc1ccc(Br)cn1)C1CCCNC1 (stereo unspecified) | 169 to 171 °C |
| CCn1c2ccccc2c2cc(CNCCCO)ccc21 | 76 to 78 °C |
| CC(C)(C)OC(=O)N(CC(=O)O)c1ccccc1 | 84 to 86 °C |
| NC(=O)NC1(C(=O)O)CCCCC1 | 179 to 181 °C |
| Cn1c(=O)c2ccccc2n2cc3ccccc3c12 | 164 to 166 °C |
| CC1CCC(=CC(=O)O)CC1 (stereo unspecified) | 61 to 63 °C |
| Nc1nccc(-c2ccc([N+](=O)[O-])cc2)n1 | 217 to 219 °C |

| Compound | melting point |
| --- | --- |
| COc1ccc(NC(=O)CSCC(=O)O)cc1 | 112 to 114 °C |
| NCC(O)c1ccc(F)c(F)c1 (stereo unspecified) | 53 to 55 °C |
| O=C(O)Cc1ccc(S(=O)(=O)N2CCCCC2)s1 | 81 to 83 °C |
| CN(C)c1ccc([N+](=O)[O-])cc1C(=O)O | 149 to 151 °C |
| N#CCC1(Sc2ccccc2N)CCCC1 | 89 to 91 °C |
| CCc1nc(N)nc(SC)n1 | 143 to 145 °C |
| O=C(O)c1oc2ccccc2c1CSC1CCCCC1 | 158 to 160 °C |
| COC(=O)c1cnc2[nH]nc(C)c2c1 | 185 to 187 °C |
| Cc1ccc(N)c(Cl)c1Cl | 45 to 47 °C |
| Nc1nc2c(C(F)(F)F)cccc2s1 | 48 to 50 °C |
| COC(=O)c1cn(CC(=O)O)nn1 | 176 to 178 °C |
| OCc1nc(-c2ccco2)no1 | 123 to 125 °C |
| O=C(O)c1ccccc1NS(=O)(=O)c1ccc(Br)cc1 | 225 to 227 °C |
| Cc1ccc(S(=O)(=O)NC(CCl)c2ccccc2)cc1 (stereo unspecified) | 174 to 176 °C |
| Cc1ccc2nc(CCl)cc(=O)n2c1 | 136 to 138 °C |
| COc1ccc2cc(C(=O)O)[nH]c2c1 | 190 to 192 °C |
| Nc1cc(N)c(F)cc1F | 111 to 113 °C |
| CC1(C)CCCCC1CC(=O)O (stereo unspecified) | 41 to 43 °C |
| COC(=O)c1c[nH]c(C)n1 | 136 to 138 °C |
| Oc1ccc(-c2nc3cc(C(F)(F)F)ccc3s2)cc1 | 182 to 184 °C |
| CC(C)CN1C(=O)C(=O)c2ccccc21 | 82 to 84 °C |
| O=S(=O)(Cl)c1cnc(Cl)nc1Cl | 96 to 98 °C |
| c1ccc(C2NCCn3cccc32)cc1 (stereo unspecified) | 72 to 74 °C |
| CCn1c(=O)c(C)nc2cc(C(=O)O)ccc21 | 204 to 206 °C |

| Compound | melting point |
| --- | --- |
| Cc1nc(S)c(C#N)cc1C(=O)Nc1ccccc1 | 201 to 203 °C |
| Cc1cccc(C(=O)NC(C)C(=O)O)c1 (stereo unspecified) | 117 to 119 °C |
| NCc1nncn1-c1ccccc1 | 59 to 61 °C |
| O=C(O)C1CCCN1C(=O)C1CCCC1 (stereo unspecified) | 125 to 127 °C |
| CC(C)S(=O)(=O)c1ccc(CC(=O)O)cc1 | 146 to 148 °C |
| Cc1ccc(-c2nn(-c3ccccc3)cc2C(=O)O)o1 | 160 to 163 °C |
| O=C(O)CCNS(=O)(=O)c1cccc(Cl)c1 | 143 to 145 °C |
| O=C(O)CCc1nnc(-c2ccc(Cl)cc2)o1 | 159 to 161 °C |
| Nc1cc(Br)ccc1S(N)(=O)=O | 142 to 144 °C |
| COc1ccc(C2CNC(=O)C2)cc1 (stereo unspecified) | 126 to 128 °C |
| CC(=O)c1cc(Cl)cc(CN2CCN(C(C)=O)CC2)c1O | 136 to 138 °C |
| C=CCn1c(S)nc2cc(Cl)ccc2c1=O | 139 to 141 °C |
| O=C(O)CC(O)(c1nc2ccccc2o1)C(F)(F)F (stereo unspecified) | 194 to 196 °C |
| CCOC(=O)c1cc(F)ccc1S(=O)(=O)Cl | 69 to 71 °C |
| CN(C)S(=O)(=O)c1ccc(N2CCOCC2)c(C(=O)O)c1 | 218 to 220 °C |
| CC(=O)Nc1ccc(S(=O)(=O)N2CCC(N)CC2)cc1 | 212 to 214 °C |
| CCOc1ccc(C=C(C(=O)O)c2cccs2)cc1 | 133 to 135 °C |
| Cc1nc2ccccc2nc1CCl | 121 to 123 °C |
| O=C(O)Cc1csc(-c2ccc(F)cc2)n1 | 129 to 131 °C |
| O=C(O)C1CCN(CC(F)(F)F)CC1 | 62 to 64 °C |
| Cc1cnn(-c2ccc(C(=O)O)cc2)c1 | 240 to 242 °C |
